Data on ten compounds can be found in patent publication US20140163099A1, “ANTIMICROBIAL COMPOSITION” (TAKASAGO INTERNATIONAL CORPORATION, priority 2011, published 2014).

Structures are written as SMILES. Values after ≈ are worked out from the molar mass of the structure shown.

Holding throughout (format): cell-based
Test [1] concerns Klebsiella pneumoniae (NBRC13277). The test can be described thus: Growth inhibition activity (MIC, agar) against aerobic bacteria. The following applies: Klebsiella pneumoniae; strain NBRC13277; Mueller Hinton Agar, 37 degrees C. overnight; read-out: MIC (Minimum Inhibitory Concentration). The protocol:
(§1) In the present invention, the growth inhibition activity, which is an indicator of the antimicrobial activity, is evaluated by determining the Minimum Inhibitory Concentration (MIC) with an agar or liquid medium.
(§2) Furthermore, the following bacteria were also used as other general aerobic bacteria: • Escherichia coli: Escherichia coli (NBRC3972) • Pseudomonas aeruginosa: Pseudomonas aeruginosa (NBRC13275) • Bacteria in intestines: Proteus vulgaris (NBRC3167) • Pneumobacillus: Klebsiella pneumoniae (NBRC13277) • Bacillus subtilis: Bacillus subtilis (NBRC3134)
(§3) The test strains were cultured in the liquid medium which the Bioresource center recommends, and then the test strains were subcultured to a Mueller Hinton Broth (Difco) at 30 degrees C. The grown bacteria were diluted to 10^6 CFU/ml with saline to adjust the bacteria fluids for inoculation.
(§4) Furthermore, in order to examine the growth inhibition activities against the bacteria by the above cooling agents, the concentration of the cooling agents: (3S)-CA20, (3R)-CA20, CA1, CA5, CA15, CA55 or CA MGH was diluted with ethanol to the required level of concentration for the determining the Minimum Inhibitory Concentration to produce the sample liquids.
(§5) Next, 100 μL of each sample liquid was added to 10 mL of a Mueller Hinton Agar (Difco) agar medium solution in a soluble state, and each agar medium solution was poured into a petri dish and solidified to prepare test plates having several concentrations of the sample liquids (several concentrations of the above cooling agents). Subsequently, 5 μL of the above bacteria fluids for inoculation were stamped on the test plates, and then the test plates were cultured at 37 degrees C. overnight.
(§6) In this way, the growth inhibition activities by (3S)-CA20, (3R)-CA20, CA1, CA5, CA15, CA55, CA MGH were examined. The minimum concentration of the cooling agent in which the growth of bacteria could not be confirmed was considered as the MIC (Minimum Inhibitory Concentration).
(§7) The minimum concentration of the cooling agent in which the grown strain could not be confirmed was considered as the MIC (Minimum Inhibitory Concentration).

Test [2] has as its system Pseudomonas aeruginosa (NBRC13275). Described as above. As to conditions: Pseudomonas aeruginosa; strain NBRC13275; Mueller Hinton Agar, 37 degrees C. overnight; read-out: MIC (Minimum Inhibitory Concentration). The protocol: as §1, §2, §3, §4, §5, §6, §7
The subject of test [3] is Escherichia coli (NBRC3972). Described as above. As to conditions: Escherichia coli; strain NBRC3972; Mueller Hinton Agar, 37 degrees C. overnight; read-out: MIC (Minimum Inhibitory Concentration). The protocol:
as §1, §2, §3, §4, §5, §6, §7

For test [4], the system named is Bacillus subtilis (NBRC3134). The description is as above. The following applies: Bacillus subtilis; strain NBRC3134; Mueller Hinton Agar, 37 degrees C. overnight; read-out: MIC (Minimum Inhibitory Concentration). The protocol:
as §1, §2, §3, §4, §5, §6, §7

In test [5] the test system is Proteus vulgaris (NBRC3167). Described as above. As to conditions: Proteus vulgaris; strain NBRC3167; Mueller Hinton Agar, 37 degrees C. overnight; read-out: MIC (Minimum Inhibitory Concentration). The protocol:
as §1, §2, §3, §4, §5, §6, §7

Test [6] relates to Prevotella nigrescens (JCM6322). The test can be described thus: Growth inhibition activity (MIC, agar) against anaerobic bacteria. The following applies: Prevotella nigrescens, JCM6322, 72 h, strain JCM6322; Trypticase Soy Broth agar, 37 degrees C. for 3 days; read-out: MIC (Minimum Inhibitory Concentration). The protocol:
as §1
(§8) In the test for growth inhibition activity, the following strains were used: • Acne bacteria: Propionibacterium acnes (JCM6473) and (ATCC6919) • Abscess bacteria: Bacteroides fragilis (GAI5560) • Cavity-causing bacteria: Streptococcus mutans (JCM5175), Actinomyces naeslundii (JCM8350) and Actinomyces viscosus (JCM8352) • Periodontal pathogen: Fusobacterium nucleatum (JCM6328), Porphyromonas gingivalis (JCM8525), Prevotella nigrescens (JCM6322)
(§9) The test strains were cultured in a GAM medium (Nissui Pharmaceutical Co., LTD), a Schaedler Broth (BBL) or a Trypticase Soy Broth (BBL) liquid medium, and then the grown bacteria were diluted in saline to prepare turbidity 0.5 McFarland of the bacteria fluids for inoculation. The bacteria were cultured at 37 degrees C. for 3 days under an anaerobic condition by using AnaeroPack® from MGC.
(§10) Furthermore, in order to examine the growth inhibition activities against the bacteria by the above cooling agent, the concentration of the cooling agents: (3S)-CA20, (3R)-CA20, CA1, CA5, CA15, CA55 or CA MGH was diluted with ethanol to the required level of concentrations for the determining the Minimum Inhibitory Concentration to produce the sample liquids.
(§11) Next, 100 μL of each sample liquid was added to 10 mL of a Trypticase Soy Broth agar medium solution in a soluble state, and each agar medium solution was poured into a petri dish and solidified, to prepare the test plates. Subsequently, 5 μL of above the bacteria fluids for inoculation were stamped on the test plates, and then the test plates were cultured at 37 degrees C. for 3 days.
(§12) The minimum concentration of the cooling agent in which the growth of bacteria could not be confirmed was considered as the MIC (Minimum Inhibitory Concentration).
as §12

For test [7], the system named is Propionibacterium acnes (JCM6473). The description is as above. The following applies: Cutibacterium acnes, 72 h; strain JCM6473; Trypticase Soy Broth agar, 37 degrees C. for 3 days; read-out: MIC (Minimum Inhibitory Concentration). The protocol: as §1, §8, §9, §10, §11, §12, §12
In test [8] the test system is Porphyromonas gingivalis (JCM8525). The description is as above. As to conditions: Porphyromonas gingivalis, JCM8525, 72 h, strain JCM8525; Trypticase Soy Broth agar, 37 degrees C. for 3 days; read-out: MIC (Minimum Inhibitory Concentration). The protocol:
as §1, §8, §9, §10, §11, §12, §12

Another test deals with target microbe species. Briefly: Growth inhibition activity compared with 3-menthoxypropane-1,2-diol. The following applies: depending on kinds of target microbe species.
Text: Although the all present cooling agents can have growth inhibition activities against both aerobic and anaerobic microorganisms (e.g. bacteria and fungi, etc.), menthyl 3-hydroxybutanoate and 3-menthoxypropan-1-ol have specifically high growth inhibition activities and potent growth inhibition activities against both aerobic and anaerobic microorganisms. Examples of microorganisms include Corynebacterium, Actinomyces and so on. Menthyl 3-hydroxybutanoate and 3-menthoxypropan-1-ol have 2 to 8 times as much growth inhibition activity as 3-menthoxypropane-1,2-diol (which is known as an antimicrobial agent), and can have more than or equal to 8 times as much growth inhibition activity as 3-menthoxypropane-1,2-diol, depending on kinds of target microbe species.
Furthermore, when compared 2-methyl-3-(menthoxy)propane-1,2-diol with 3-menthoxypropane-1,2-diol (which is known as an antimicrobial agent), the former has about 2 times as much growth inhibition activity as the latter, depending on kinds of target microbe species. […]
as §1

Consider `CC1CCC(C(C)(C)O)C(O)C1` (centres unmarked) [CA38, p-menthane-3,8-diol, reference compound], for which the MIC is above 1600 µg/mL in [1]; above 1600 µg/mL in [2]; above 1600 µg/mL in [3]; 800 µg/mL (≈ 4.64 mM) in [4]; above 1600 µg/mL in [5]; 1600 µg/mL (≈ 9.29 mM) in test [6]. In addition, the MIC in test [7] is above 1600 µg/mL.

Regarding `CNC(=O)C(C)(C(C)C)C(C)C` [WS-23, N-methyl-2-isopropyl-2,3-dimethylbutanamide, reference compound], the MIC in test [1], in test [2], in test [3], in test [4], in [5] and in [6] was above 1600 µg/mL throughout. Also, the MIC in test [7] and in test [8] was above 1600 µg/mL throughout.

For `CC1CCC(C(C)C)C(OCCO)C1` (centres unmarked) [CA5, 2-(menthoxy)ethanol], the MIC in test [1] was 400 µg/mL (≈ 2 mM); in test [2] it was above 1600 µg/mL; in [3] it was above 1600 µg/mL; in test [4], 800 µg/mL (≈ 3.99 mM); in [5], 1600 µg/mL (≈ 7.99 mM); in test [6], 200 µg/mL (≈ 0.998 mM). Moreover, the MIC in [7] came out at 400 µg/mL (≈ 2 mM).

Take `CC1CCC(C(C)C)C(OCC(C)(O)CO)C1` (centres unmarked) [CA1, 2-methyl-3-(menthoxy)propane-1,2-diol]: the “growth inhibition activity as multiple of 3-menthoxypropane-1,2-diol” value in the test on target microbe species is recorded as “about 2 times”. For the same compound, the MIC is 400 µg/mL (≈ 1.64 mM) in [1]; above 1600 µg/mL in [2]; above 1600 µg/mL in test [3]; 400 µg/mL (≈ 1.64 mM) in test [4]; above 1600 µg/mL in test [5]; 200 µg/mL (≈ 0.818 mM) in [6]. In addition, the values for the MIC in [7] and in test [8] were 400 µg/mL (≈ 1.64 mM) and 200 µg/mL (≈ 0.818 mM), respectively.

Turning to `CC1CCC(C(C)C)C(OCCCO)C1` (centres unmarked) [CA15, 3-menthoxypropan-1-ol], the MIC was 200 µg/mL (≈ 0.933 mM) in [1]; above 1600 µg/mL in test [2]; above 1600 µg/mL in test [3]; 400 µg/mL (≈ 1.87 mM) in test [4]; above 1600 µg/mL in test [5]; 100 µg/mL (≈ 0.467 mM) in [6]. Besides, the MIC in test [7] is 200 µg/mL (≈ 0.933 mM).

Turning to `CC1CCC(C(C)C)C(OC(=O)C=O)C1` (centres unmarked) [CA MGH, menthyl glyoxylate], the MIC in [1] is 50 µg/mL (≈ 0.236 mM); in test [2] it was 800 µg/mL (≈ 3.77 mM); in test [3], 800 µg/mL (≈ 3.77 mM); in test [4] it was 50 µg/mL (≈ 0.236 mM); in test [5], 100 µg/mL (≈ 0.471 mM); in test [7], 200 µg/mL (≈ 0.942 mM). Moreover, the MIC in [8] was 50 µg/mL (≈ 0.236 mM).

On to `CC(O)CC(=O)OC1CC(C)CCC1C(C)C` [(3S)-CA20, menthyl 3-hydroxybutanoate], for which the MIC in test [1] was 200 µg/mL (≈ 0.825 mM); in [2], above 1600 µg/mL; in [3], above 1600 µg/mL; in test [4], 200 µg/mL (≈ 0.825 mM); in [5], above 1600 µg/mL; in [6], 100 µg/mL (≈ 0.413 mM). Further, the results for the MIC in test [7] and in [8] were 200 µg/mL (≈ 0.825 mM) and below 50 µg/mL, respectively.

Turning to `CC1CCC(C(C)C)C(O)C1` (stereo not drawn) [l-menthol, menthol, reference compound], the MIC in test [1] is 1600 µg/mL (≈ 10.2 mM); in [2], above 1600 µg/mL; in test [3], 1600 µg/mL (≈ 10.2 mM); in test [4], 1600 µg/mL (≈ 10.2 mM); in test [5], 1600 µg/mL (≈ 10.2 mM); in test [6], 1600 µg/mL (≈ 10.2 mM). Besides, in [7], the MIC was 1600 µg/mL (≈ 10.2 mM).

As for `CC1CCC(C(C)C)C(OCCOCCO)C1` (centres unmarked) [CA55, 2-(2-menthoxyethoxy)ethanol], the MIC is 800 µg/mL (≈ 3.27 mM) in test [1]; above 1600 µg/mL in test [2]; above 1600 µg/mL in test [3]; 800 µg/mL (≈ 3.27 mM) in [4]; above 1600 µg/mL in test [5]; 100 µg/mL (≈ 0.409 mM) in test [6]. In addition, the MIC in test [7] was 800 µg/mL (≈ 3.27 mM).

For the compound `CC1CCC(C(C)C)C(OCC(O)CO)C1` (centres unmarked) [CA10, 3-menthoxypropane-1,2-diol, reference compound], the MIC in [1] is 800 µg/mL (≈ 3.47 mM); in [2], above 1600 µg/mL; in [3] it was above 1600 µg/mL; in [4], 800 µg/mL (≈ 3.47 mM); in test [5], 1600 µg/mL (≈ 6.95 mM); in test [6], 200 µg/mL (≈ 0.868 mM). In test [7], the MIC came to 800 µg/mL (≈ 3.47 mM).
